Laboratory results from ChEMBL document CHEMBL1201862, “PubChem BioAssay data set” (2004).
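Test compounds were applied to cells in 96-well plates for 48 hours at 5 doses. The concentration for 50% growth inhibition is given as GI50.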 Calls of active or inactive are those of the source. Cut-off read from the data, not from the text of the source: active = GI50 up to about 1.1 µM and inactive = higher.

Experiments:
Assay in all cases: NCI anticancer screen, dose series, 48 h
U-251 = tested on: U-251
K562 = tested on: K562
CCRF-CEM = tested on: CCRF-CEM
SK-MEL-28 = tested on: SK-MEL-28
UACC-257 = tested on: UACC-257
COLO 205 = tested on: COLO 205
HL-60 = tested on: HL-60
SW-620 = tested on: SW-620
NCI-H460 = tested on: NCI-H460
HOP-62 = tested on: HOP-62
Hs-578T = tested on: Hs-578T
HT-29 = tested on: HT-29
SK-OV-3 = tested on: SK-OV-3
A498 = tested on: A498
SF-539 = tested on: SF-539
SN12C = tested on: SN12C
Malme-3M = tested on: Malme-3M
NCI-H23 = tested on: NCI-H23
SF-295 = tested on: SF-295
HCT-15 = tested on: HCT-15

SMILES	GI50 (U-251)	GI50 (K562)	GI50 (CCRF-CEM)	GI50 (SK-MEL-28)	GI50 (UACC-257)	GI50 (COLO 205)	GI50 (HL-60)	GI50 (SW-620)	GI50 (NCI-H460)	GI50 (HOP-62)	GI50 (Hs-578T)	GI50 (HT-29)	GI50 (SK-OV-3)	GI50 (A498)	GI50 (SF-539)	GI50 (SN12C)	GI50 (Malme-3M)	GI50 (NCI-H23)	GI50 (SF-295)	GI50 (HCT-15) [µM]
CN1CCN(C2=CC(=O)c3c(O)ccc(O)c3C2=O)CC1	1.61 µM (inactive)	0.347 µM (active)	0.501 µM (active)	1.64 µM (inactive)	0.244 µM (active)	0.166 µM (active)	0.298 µM (active)	0.618 µM (active)	1.9 µM (inactive)	1 µM (active)	2.03 µM (inactive)	0.302 µM (active)	5.02 µM (inactive)	1.54 µM (inactive)	1.61 µM (inactive)	1.64 µM (inactive)	0.228 µM (active)	1.4 µM (inactive)	1.69 µM (inactive)	
O=C(O)CSCC(=O)c1ccccc1	> 100 µM (inactive)	> 100 µM (inactive)		> 100 µM (inactive)	> 100 µM (inactive)	> 100 µM (inactive)	> 100 µM (inactive)	> 100 µM (inactive)	> 100 µM (inactive)	> 100 µM (inactive)	> 100 µM (inactive)	> 100 µM (inactive)	> 100 µM (inactive)	> 100 µM (inactive)	> 100 µM (inactive)	> 100 µM (inactive)	> 100 µM (inactive)	> 100 µM (inactive)	> 100 µM (inactive)	> 100
COc1cc2c3c(c1OC)-c1cc4c(cc1CC3(C#N)N(C(=O)c1ccccc1)CC2)OCO4 (stereo not drawn)	21.1 µM (inactive)	73.5 µM (inactive)	> 100 µM (inactive)	59.7 µM (inactive)	60.4 µM (inactive)	> 100 µM (inactive)	> 100 µM (inactive)	87.9 µM (inactive)	52.6 µM (inactive)	42.1 µM (inactive)	19.6 µM (inactive)	> 100 µM (inactive)	25.7 µM (inactive)	41.1 µM (inactive)	17.7 µM (inactive)	50.7 µM (inactive)	35.3 µM (inactive)	25.5 µM (inactive)	33.3 µM (inactive)	> 100
C/C1=C/C2=CC(C)C[C@@H]2C(=O)[C@]2(C)C(=O)CC(C)(C)[C@H]2CC1=O (stereo partly drawn)	> 50 µM (inactive)	32.3 µM (inactive)	15 µM (inactive)		> 50 µM (inactive)	> 50 µM (inactive)	9.73 µM (inactive)	> 50 µM (inactive)	> 50 µM (inactive)		> 50 µM (inactive)	> 50 µM (inactive)	> 50 µM (inactive)	> 50 µM (inactive)	> 50 µM (inactive)	> 50 µM (inactive)	> 50 µM (inactive)	> 50 µM (inactive)	> 50 µM (inactive)	> 50
COC(=O)c1sc2c(c1C(=O)OC)/C(=N/C(C)(C)C)S/C2=N\C(C)(C)C	17.1 µM (inactive)	18.5 µM (inactive)	15.6 µM (inactive)	17.3 µM (inactive)	17.9 µM (inactive)	17.4 µM (inactive)	13.6 µM (inactive)	17.9 µM (inactive)	18.5 µM (inactive)	19.6 µM (inactive)	25.7 µM (inactive)	16.4 µM (inactive)	25.4 µM (inactive)	17.8 µM (inactive)	16.6 µM (inactive)	16.6 µM (inactive)	20.7 µM (inactive)	18.8 µM (inactive)	19.2 µM (inactive)	17.2
CCOC(=O)Cc1nc2c(O)ncnc2n1C1OC(COC(C)=O)C(OC(C)=O)C1OC(C)=O (stereo not drawn)	> 100 µM (inactive)	> 100 µM (inactive)	> 100 µM (inactive)	> 100 µM (inactive)	> 100 µM (inactive)	> 100 µM (inactive)	> 100 µM (inactive)	> 100 µM (inactive)	> 100 µM (inactive)	> 100 µM (inactive)	> 100 µM (inactive)	> 100 µM (inactive)	> 100 µM (inactive)	> 100 µM (inactive)	> 100 µM (inactive)	> 100 µM (inactive)	> 100 µM (inactive)	> 100 µM (inactive)	> 100 µM (inactive)	> 100
COc1cc(/C=C/C(=N\NC(=S)NN)c2sc(NNC(C)=O)nc2C)ccc1O	> 100 µM (inactive)	> 100 µM (inactive)	> 100 µM (inactive)	> 100 µM (inactive)	> 100 µM (inactive)	> 100 µM (inactive)	> 100 µM (inactive)	> 100 µM (inactive)	> 100 µM (inactive)	> 100 µM (inactive)	> 100 µM (inactive)	> 100 µM (inactive)	> 100 µM (inactive)	> 100 µM (inactive)	> 100 µM (inactive)	> 100 µM (inactive)	> 100 µM (inactive)	> 100 µM (inactive)	> 100 µM (inactive)	> 100
Clc1ccccc1-c1nc2cc(C34CC5CC(CC(C5)C3)C4)ccc2[nH]1	7.98 µM (inactive)	27.5 µM (inactive)	33 µM (inactive)	20.6 µM (inactive)	59.7 µM (inactive)	34 µM (inactive)	23.7 µM (inactive)	46 µM (inactive)	30.3 µM (inactive)	14.3 µM (inactive)	28.8 µM (inactive)	11.4 µM (inactive)	16.1 µM (inactive)	25 µM (inactive)		24.3 µM (inactive)	25.5 µM (inactive)	14.4 µM (inactive)	13.6 µM (inactive)	41.9
COc1ccc(C2OC(N)=C(C#N)C3=C2CCCC3C)cc1OC (stereo not drawn)	> 100 µM (inactive)	> 100 µM (inactive)	> 100 µM (inactive)	> 100 µM (inactive)	> 100 µM (inactive)	> 100 µM (inactive)	> 100 µM (inactive)	> 100 µM (inactive)	> 100 µM (inactive)		> 100 µM (inactive)	> 100 µM (inactive)	> 100 µM (inactive)	> 100 µM (inactive)	> 100 µM (inactive)	> 100 µM (inactive)	> 100 µM (inactive)	> 100 µM (inactive)	> 100 µM (inactive)	> 100
CC1=C(C(=S)Nc2ccc(Cl)c(C(=O)OC(C)C)c2)SCCO1	17.6 µM (inactive)	17.1 µM (inactive)	18.2 µM (inactive)	17.9 µM (inactive)	18.5 µM (inactive)	20 µM (inactive)	17.5 µM (inactive)	20.2 µM (inactive)	21.8 µM (inactive)		29.3 µM (inactive)	18.6 µM (inactive)	20.4 µM (inactive)	16.1 µM (inactive)	18.7 µM (inactive)	16.7 µM (inactive)	20.3 µM (inactive)	20.6 µM (inactive)	15.7 µM (inactive)	17.1
CC(=O)N1c2ccccc2C(C)(C)OC1C(Cl)(Cl)Cl (stereo not drawn)	33.3 µM (inactive)		27.7 µM (inactive)	47.6 µM (inactive)	26.5 µM (inactive)	30.3 µM (inactive)	16.8 µM (inactive)	34 µM (inactive)	33.3 µM (inactive)	55.8 µM (inactive)	22.6 µM (inactive)	24.2 µM (inactive)	37.8 µM (inactive)	37 µM (inactive)	44.5 µM (inactive)	29.9 µM (inactive)	35.9 µM (inactive)	34.1 µM (inactive)	37.6 µM (inactive)	32.2
CCCCCCc1cc2cc(C(=O)Nc3ccccc3F)c(=N)oc2cc1O	4.81 µM (inactive)	3.7 µM (inactive)	4.76 µM (inactive)	7.69 µM (inactive)	6.64 µM (inactive)	19.3 µM (inactive)	6.24 µM (inactive)	12.6 µM (inactive)	7.62 µM (inactive)	14.3 µM (inactive)	11.4 µM (inactive)	24.7 µM (inactive)	12.5 µM (inactive)	14.4 µM (inactive)	12.6 µM (inactive)		6.12 µM (inactive)	3.18 µM (inactive)	12.1 µM (inactive)	3.93
CC(=O)OCC1OC(n2c(N)c(C#N)c(-c3ccc(C)cc3)c(C#N)c2=S)C(OC(C)=O)C(OC(C)=O)C1OC(C)=O (stereo not drawn)	17 µM (inactive)	40.5 µM (inactive)	35.2 µM (inactive)	38.7 µM (inactive)	19.2 µM (inactive)	16 µM (inactive)	87.5 µM (inactive)	36 µM (inactive)	31.4 µM (inactive)	20 µM (inactive)	19.8 µM (inactive)	18.7 µM (inactive)	24.5 µM (inactive)	39.9 µM (inactive)	4.91 µM (inactive)	15.6 µM (inactive)	17.8 µM (inactive)	21.1 µM (inactive)	25.4 µM (inactive)	38
CN(C)c1ccc(/C=C(\NC(=O)c2ccccc2)C2NC(Cc3c[nH]c4ccccc34)C(=O)O2)cc1 (stereo not drawn)	4.49 µM (inactive)	10.9 µM (inactive)	8.91 µM (inactive)	> 100 µM (inactive)	40.6 µM (inactive)	4.06 µM (inactive)	6.65 µM (inactive)	9.42 µM (inactive)	3.19 µM (inactive)	41.2 µM (inactive)	11.2 µM (inactive)	3.25 µM (inactive)	> 59.4 µM (inactive)	> 93.1 µM (inactive)		> 28.5 µM (inactive)	21.4 µM (inactive)	14 µM (inactive)	36.1 µM (inactive)	14.3
C=C(CCOC)CCC1CCCCC(CN(C)C)C1=O (stereo not drawn)	> 100 µM (inactive)	> 100 µM (inactive)	> 100 µM (inactive)	> 100 µM (inactive)		> 100 µM (inactive)	> 100 µM (inactive)	> 100 µM (inactive)	> 100 µM (inactive)	> 100 µM (inactive)	> 100 µM (inactive)	> 100 µM (inactive)	> 100 µM (inactive)	> 100 µM (inactive)		> 100 µM (inactive)	> 100 µM (inactive)	> 100 µM (inactive)	> 100 µM (inactive)	> 100
